Measured values as given in US9006450B2 (Boehringer Ingelheim International GmbH, priority 2010, dated 2015).
pIC50: −log10 of the molar value.

The compounds below were run against T1, human ACC2 (Homo sapiens, UniProt O00763) (assay: ACC2 assay, spectrophotometric 384 well assay (NADH-linked, coupled lactate dehydrogenase/pyruvate kinase)). Conditions: ACC2 assay, hACC2 construct lacking 128 N-terminal amino acids, 25° C., 340 nm; read-out: IC50.
T1 construct: made in house; host or cells: insect cells (baculoviral expression system)
T1 sequence (O00763 129-2458 limits assumed): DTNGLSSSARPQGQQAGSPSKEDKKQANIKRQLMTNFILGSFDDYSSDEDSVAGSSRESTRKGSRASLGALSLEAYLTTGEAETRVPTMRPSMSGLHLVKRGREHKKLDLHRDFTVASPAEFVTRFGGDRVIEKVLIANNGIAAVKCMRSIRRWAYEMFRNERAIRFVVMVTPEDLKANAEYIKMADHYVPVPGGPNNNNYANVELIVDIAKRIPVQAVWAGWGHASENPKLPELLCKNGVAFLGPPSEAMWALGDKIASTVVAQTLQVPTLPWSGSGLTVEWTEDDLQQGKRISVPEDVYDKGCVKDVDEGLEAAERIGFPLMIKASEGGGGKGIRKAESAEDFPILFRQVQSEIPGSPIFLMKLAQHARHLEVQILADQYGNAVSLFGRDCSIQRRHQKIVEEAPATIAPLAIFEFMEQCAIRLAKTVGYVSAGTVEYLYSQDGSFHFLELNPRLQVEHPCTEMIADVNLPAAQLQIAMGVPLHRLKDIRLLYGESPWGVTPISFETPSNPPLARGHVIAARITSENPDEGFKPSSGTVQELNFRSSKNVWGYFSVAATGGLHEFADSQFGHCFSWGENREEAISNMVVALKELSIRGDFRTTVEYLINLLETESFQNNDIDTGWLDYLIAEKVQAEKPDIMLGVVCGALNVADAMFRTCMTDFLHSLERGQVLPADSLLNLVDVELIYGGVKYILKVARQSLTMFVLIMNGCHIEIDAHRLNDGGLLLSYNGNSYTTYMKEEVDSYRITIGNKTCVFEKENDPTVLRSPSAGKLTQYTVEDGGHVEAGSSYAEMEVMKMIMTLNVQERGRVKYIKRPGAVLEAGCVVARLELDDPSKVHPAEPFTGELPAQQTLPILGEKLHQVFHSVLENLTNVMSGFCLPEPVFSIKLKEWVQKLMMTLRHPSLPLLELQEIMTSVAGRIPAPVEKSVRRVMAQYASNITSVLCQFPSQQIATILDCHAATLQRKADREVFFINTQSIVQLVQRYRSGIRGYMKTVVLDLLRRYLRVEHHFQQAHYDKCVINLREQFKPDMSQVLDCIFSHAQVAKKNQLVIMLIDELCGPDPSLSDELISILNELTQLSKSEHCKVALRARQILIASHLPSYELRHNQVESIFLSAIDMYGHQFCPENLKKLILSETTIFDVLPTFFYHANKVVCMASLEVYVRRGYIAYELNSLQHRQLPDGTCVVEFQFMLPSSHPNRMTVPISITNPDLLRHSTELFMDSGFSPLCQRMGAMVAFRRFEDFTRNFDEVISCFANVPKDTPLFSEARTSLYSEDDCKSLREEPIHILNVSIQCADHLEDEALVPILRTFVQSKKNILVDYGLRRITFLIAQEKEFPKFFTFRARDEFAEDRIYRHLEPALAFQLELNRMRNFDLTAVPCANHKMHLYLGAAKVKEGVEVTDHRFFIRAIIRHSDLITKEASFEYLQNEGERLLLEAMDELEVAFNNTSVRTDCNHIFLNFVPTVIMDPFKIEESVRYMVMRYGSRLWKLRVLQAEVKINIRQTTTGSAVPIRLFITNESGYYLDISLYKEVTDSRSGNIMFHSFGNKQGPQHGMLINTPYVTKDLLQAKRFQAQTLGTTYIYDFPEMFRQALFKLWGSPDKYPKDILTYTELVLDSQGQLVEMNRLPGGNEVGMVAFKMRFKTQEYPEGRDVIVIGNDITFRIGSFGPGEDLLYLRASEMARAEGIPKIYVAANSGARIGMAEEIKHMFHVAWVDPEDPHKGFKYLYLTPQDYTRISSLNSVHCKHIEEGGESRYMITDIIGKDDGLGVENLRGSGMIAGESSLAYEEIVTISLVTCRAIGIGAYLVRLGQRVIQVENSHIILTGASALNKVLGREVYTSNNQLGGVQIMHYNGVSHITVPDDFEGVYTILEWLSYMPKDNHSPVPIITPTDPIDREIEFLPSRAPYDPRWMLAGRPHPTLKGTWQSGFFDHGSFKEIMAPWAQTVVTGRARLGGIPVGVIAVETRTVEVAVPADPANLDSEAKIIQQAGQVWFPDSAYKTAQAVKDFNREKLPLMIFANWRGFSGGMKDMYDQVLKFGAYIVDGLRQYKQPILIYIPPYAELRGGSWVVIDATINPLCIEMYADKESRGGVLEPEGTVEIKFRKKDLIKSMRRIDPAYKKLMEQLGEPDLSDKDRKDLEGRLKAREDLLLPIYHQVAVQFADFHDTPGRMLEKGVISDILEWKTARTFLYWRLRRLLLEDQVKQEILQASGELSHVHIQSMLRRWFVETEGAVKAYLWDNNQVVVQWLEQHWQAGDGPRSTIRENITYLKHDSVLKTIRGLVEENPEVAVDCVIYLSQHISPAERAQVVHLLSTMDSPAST
Type: biochemical
Outline: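 Human ACC2 lacking N-terminal 128 aa, baculovirus/insect-cell expressed, anion-exchange purified; 100 mM Tris pH 7.5, 10 mM citrate, 25 mM KHCO3, 1% DMSO. Started with 200 μM NADH and acetyl-CoA plus 500 μM ATP; PK/LDH-coupled A340 decrease read 15 min at 25° C. IC50 by nonlinear fit of low-control-subtracted slopes.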
A pIC50 of 5.82 was found for CCOc1ccc(N2CCC(c3ccc([C@H](C)NC(=O)Nc4cncnc4)cc3)CC2)cc1 [Example 14.59] in this work.
A pIC50 of 5.68 was found for CCOc1ccc(N2CCC(c3ccc([C@H](C)NC(=O)NCc4ccncn4)cc3)CC2)cc1 [Example 14.60] in this work.
A pIC50 of 6.28 was found for CCOc1ccc(N2CCC(c3ccc([C@H](C)NC(=O)N(C)CCc4cn[nH]c4)cc3)CC2)cc1 [Example 14.61] in this work.
A pIC50 of 4.88 was found for CCOc1ccc(N2CCC(c3ccc([C@H](C)NC(=O)NCc4cncnc4)cc3)CC2)cc1 [Example 14.62] in this work.
A pIC50 of 5.80 was found for CCOc1ccc(N2CCC(c3ccc([C@H](C)NC(=O)N4CCOCC4)cc3)CC2)cc1 [Example 14.63] in this work.
A pIC50 of 5.42 was found for CCOc1ccc(N2CCC(c3ccc([C@H](C)NC(=O)N(C)Cc4ccn(C)n4)cc3)CC2)cc1 [Example 14.64] in this work.
A pIC50 of 5.43 was found for CCOc1ccc(N2CCC(c3ccc([C@H](C)NC(=O)N(C)CC4CC4)cc3)CC2)cc1 [Example 14.65] in this work.
A pIC50 of 5.66 was found for CCOc1ccc(N2CCC(c3ccc([C@H](C)NC(=O)N4CCC4)cc3)CC2)cc1 [Example 14.66] in this work.
A pIC50 of 5.72 was found for CCOc1ccc(N2CCC(c3ccc([C@H](C)NC(=O)N(CC)CC)cc3)CC2)cc1 [Example 14.67] in this work.
A pIC50 of 5.11 was found for CCOc1ccc(N2CCC(c3ccc([C@H](C)NC(=O)N4CCCC4)cc3)CC2)cc1 [Example 14.68] in this work.
A pIC50 of 4.92 was found for CCOc1ccc(N2CCC(c3ccc([C@H](C)NC(=O)N4CCCCC4)cc3)CC2)cc1 [Example 14.69] in this work.
A pIC50 of 6.10 was found for CCOc1ccc(N2CCC(c3ccc([C@H](C)NC(=O)Nc4ccon4)cc3)CC2)cc1 [Example 14.70] in this work.
A pIC50 of 5.55 was found for COC(=O)Cc1ccc(N2CCC(c3ccc([C@H](C)NC(C)=O)cc3)CC2)cc1 [Example 15.1, (S)-(4-{4-[4-(1-Acetylamino-ethyl)-phenyl]-piperidin-1-yl}-phenyl)-acetic acid methyl ester] in this work.
A pIC50 of 6.46 was found for COC(=O)c1cccc(N2CCC(c3ccc([C@H](C)NC(C)=O)cc3)CC2)c1 [Example 15.2] in this work.
A pIC50 of 6.70 was found for CC(=O)N[C@@H](C)c1ccc(C2CCN(c3ccnc(OCc4ccccc4)c3)CC2)cc1 [Example 15.3] in this work.
A pIC50 of 4.75 was found for CC(=O)N[C@@H](C)c1ccc(C2CCN(c3ccc(C)nc3)CC2)cc1 [Example 15.5] in this work.
A pIC50 of 6.59 was found for CC(=O)N[C@@H](C)c1ccc(C2CCN(c3ccc4oc(C(C)C)nc4c3)CC2)cc1 [Example 15.6] in this work.
A pIC50 of 5.82 was found for COCc1nc2cc(N3CCC(c4ccc([C@H](C)NC(C)=O)cc4)CC3)ccc2o1 [Example 15.7] in this work.
A pIC50 of 5.08 was found for CC(=O)N[C@@H](C)c1ccc(C2CCN(c3ccc(C(F)(F)F)nc3)CC2)cc1 [Example 15.8] in this work.
A pIC50 of 4.70 was found for COc1cncc(N2CCC(c3ccc([C@H](C)NC(C)=O)cc3)CC2)c1 [Example 15.9] in this work.
A pIC50 of 5.49 was found for CC(=O)N[C@@H](C)c1ccc(C2CCN(c3cnccc3C)CC2)cc1 [Example 15.10] in this work.
A pIC50 of 6.80 was found for CC(=O)N[C@@H](C)c1ccc(C2CCN(c3ccc(-c4cccs4)nc3)CC2)cc1 [Example 15.11] in this work.
A pIC50 of 5.66 was found for CC(=O)N[C@@H](C)c1ccc(C2CCN(c3ccc(C(C)(C)C)nc3)CC2)cc1 [Example 15.12] in this work.
A pIC50 of 6.01 was found for CC(=O)N[C@@H](C)c1ccc(C2CCN(c3ccc4oc(C)nc4c3)CC2)cc1 [Example 15.13] in this work.
A pIC50 of 6.06 was found for CC(=O)N[C@@H](C)c1ccc(C2CCN(c3ccc4oc(C5CC5)nc4c3)CC2)cc1 [Example 15.14] in this work.
A pIC50 of 6.00 was found for CC(=O)N[C@@H](C)c1ccc(C2CCN(c3ccc4nc(C)oc4c3)CC2)cc1 [Example 15.15] in this work.
A pIC50 of 6.52 was found for CCOC(=O)c1cc2cc(N3CCC(c4ccc([C@H](C)NC(C)=O)cc4)CC3)ccc2o1 [Example 15.17] in this work.
A pIC50 of 6.48 was found for CCOc1ccc(N2CCC(c3ccc([C@H](C)NC(=O)OC)cc3)CC2)c(C#N)c1 [Example 15.18] in this work.
A pIC50 of 5.41 was found for CCC(NC(C)=O)c1ccc(C2CCN(c3ccnc(Oc4ccccc4)c3)CC2)cc1 (stereo not drawn) [Example 15.19] in this work.
A pIC50 of 5.41 was found for CCCOc1ccc(N2CCC(c3ccc(C(CC)NC(C)=O)cc3)CC2)c(OC)c1 (stereo not drawn) [Example 15.20] in this work.
